Measured values: patent publication US7858615B2, “(S)-(-)-1-(4-fluoroisoquinolin-5-Yl)Sulfonyl-2-methyl-1,4-homopiperazine hydrochloride dihydrate” (Kowa Co., Ltd., priority 2004, dated 2010)
“Also recorded” adds a separate entry of the source. Structures can show the parent of a compound that is named as a salt.

Tests used:
[1] = Test Example 2 (Hygroscopicity): weight increase in open weighing bottle at 25° C. and controlled RH; type: physicochemical; conditions: for hygroscopic stability in words: RH 33% or 92%, time-dependent; for water content reached with elapsed time: eventual value, hydrochloride
Description: Each of the dihydrate of the present invention produced in Example 1 and (S)-(−)-1-(4-fluoroisoquinolin-5-yl)sulfonyl-2-methyl-1,4-homopiperazine hydrochloride anhydrate (each 100 mg) was placed in a weighing bottle. The bottle was allowed to stand in a container maintained at 25° C. and an RH of 33% or 92%, with the container being opened. The weighing bottle was time-dependently weighed, to thereby determine increase in weight for evaluation of hygroscopicity. FIGS. 6 and 7 show the results.

[2] = Test Example 1 (Thermal Stability): storage in sealed containers in thermostats; type: physicochemical; conditions: for Percent remain (%): sealed container
Description: The dihydrate of the present invention produced in Example 1 was placed in sealable containers such that each container included 1 g of the dihydrate. After sealing, these containers were maintained in thermostats at 40, 60, and 80° C. for 7 and 14 days, so as to evaluate thermal stability.

Row | SMILES | hygroscopic stability in words [1] | change of water content (hygroscopic behavior) in words ([1]; relative humidity 92% RH, 14 days, hydrochloride dihydrate) | thermal stability in words ([2]; after storage at 40° C., 60° C., or 80° C. for two weeks) | Percent remain (%) ([2]; storage temp. 40° C., storage period 7 days) | Percent remain (%) ([2]; storage temp. 40° C., storage period 14 days) | Percent remain (%) ([2]; storage temp. 60° C., storage period 7 days) | Percent remain (%) ([2]; storage temp. 60° C., storage period 14 days) | Percent remain (%) ([2]; storage temp. 80° C., storage period 7 days) | Percent remain (%) ([2]; storage temp. 80° C., storage period 14 days) | thermal stability (decomposition or undesired reaction) in words ([2]; stored at 80° C. for two weeks) | water content reached with elapsed time ([1]; relative humidity 92%) | water content reached with elapsed time ([1]; relative humidity 92%, listed as anhydrate) | water content after seven days ([1]; relative humidity 92%, seven days)
1 | C[C@H]1CNCCCN1S(=O)(=O)c1cccc2cncc(F)c12 [dihydrate, (S)-(−)-1-(4-fluoroisoquinolin-5-yl)sulfonyl-2-methyl-1,4-homopiperazine hydrochloride dihydrate] | excellent hygroscopic stability | constant; also recorded: no change in its water content | high thermal stability | 100.0% | 99.6% | 99.6% | 99.8% | 99.8% | 99.8% | does not decompose | – | – | –
2 | C[C@H]1CNCCCN1S(=O)(=O)c1cccc2cncc(F)c12.Cl [anhydrous crystals, (S)-(−)-1-(4-fluoroisoquinolin-5-yl)sulfonyl-2-methyl-1,4-homopiperazine hydrochloride] | poor hygroscopic stability | – | – | – | – | – | – | – | – | – | about 40% | 40% | 40%
